In publication PMC6986443, “T‐495, a novel low cooperative M1 receptor positive allosteric modulator, improves memory deficits associated with cholinergic dysfunction and is characterized by low gastrointestinal side effect risk” (Pharmacology Research & Perspectives, 2020):

How the values were obtained:
[1] = Concentrations in mouse plasma and brain after single and repeated treatment; assay type: in vivo; details: C57BL/6J, oral, mean ± SD
Description: (§1) Eight‐week‐old Long‐Evans rats, 8‐ to 9‐week‐old C57BL/6J mice, and 22‐ or 29‐week‐old M1R KO mice and their WT littermates were used in this study. On the day of the experiment, animals were placed in individual cages and acclimated for more than 1 hour. A test compound or vehicle was administered 2 hours before the animals were sacrificed. […] LiCl (10 mmol/kg, s.c.) was injected 1 hour before sacrifice. In the repeated administration study, a test compound was administered to mice once daily for 13 days; on day 14, animals were treated with a test compound and LiCl (10 mmol/kg, s.c.) and then sacrificed. Animals were killed by decapitation, and blood was collected into tubes containing ethylenediaminetetraacetic acid for pharmacokinetic analysis; brains were quickly dissected, frozen on dry ice, and stored at −80°C until analysis. Brain tissues were homogenized in 19 (for rat tissues) or 39 (for mouse tissue) volumes of homogenization buffer (10 mmol/L HEPES pH 7.4, 50 mmol/L LiCl, 150 mmol/L NaCl, and 1% Triton X‐100), and the homogenate was incubated on a rotator for 1 hour, followed by centrifugation. The supernatant was diluted with 39 (for rat tissues) or 19 (for mouse tissues) volumes of dilution buffer (10 mmol/L HEPES pH 7.4, 50 mmol/L LiCl, and 150 mmol/L NaCl). IP1 and protein concentrations in the diluted supernatant were measured using IP‐One HTRF assay kit (Cisbio Bioassays) and BCA Protein Assay Kit (Thermo Fisher Scientific Inc), respectively, according to the manufacturers’ instructions. IP1 production was expressed as the ratio of IP1 to protein concentrations.

human M1R [2] = molecular target: T1, human M1R (Homo sapiens, UniProt P11229); assay: Ca2+ mobilization assay, PAM activity (with EC20 ACh), CHO‐K1 cells; assay type: cell-based; design: expressed in transfected cells; host or cells: CHO-K1
T1 sequence (P11229 1-460): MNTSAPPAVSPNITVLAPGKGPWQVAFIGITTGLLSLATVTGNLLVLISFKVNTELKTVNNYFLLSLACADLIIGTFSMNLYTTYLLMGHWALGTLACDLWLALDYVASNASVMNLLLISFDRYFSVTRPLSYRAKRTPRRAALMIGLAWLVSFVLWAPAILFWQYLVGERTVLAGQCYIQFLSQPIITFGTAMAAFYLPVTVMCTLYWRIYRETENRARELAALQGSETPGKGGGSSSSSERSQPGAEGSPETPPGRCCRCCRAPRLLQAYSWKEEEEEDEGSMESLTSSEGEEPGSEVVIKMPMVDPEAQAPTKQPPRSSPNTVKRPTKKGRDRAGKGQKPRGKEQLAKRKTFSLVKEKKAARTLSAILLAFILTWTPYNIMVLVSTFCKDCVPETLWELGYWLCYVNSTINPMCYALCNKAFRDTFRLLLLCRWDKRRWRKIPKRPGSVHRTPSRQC
Description: (§2) Chinese hamster ovary (CHO)‐K1 cells expressing M1R–M5R were plated on a 96‐well black, clear bottom plate at 30 000 cells/well and incubated at 37°C in an atmosphere of 5% CO2 for 1 day. On the day of the assay, cells were incubated with calcium dye buffer (Hanks’ Balanced Salt Solution (HBSS) containing 20 mmol/L HEPES, 0.1% fatty acid‐free bovine serum albumin (BSA), 0.08% pluronic F127 (Dojindo Laboratories), 2.5 μg/mL Fluo‐4 (Dojindo Laboratories), and 1.25 mmol/L probenecid (Dojindo Laboratories)) for 30 minutes at 37°C in an atmosphere of 5% CO2 and then incubated for 30 minutes at room temperature. To measure Ca^2+ mobilization using CellLux (PerkinElmer), cells were stimulated with T‐495 or MK‐7622 (0.01‐1000 nmol/L for PAM activity; 0.3‐10 000 nmol/L for agonist activity) in assay buffer (HBSS containing 20 mmol/L HEPES and 0.1% fatty acid‐free BSA) with or without an EC20 concentration of ACh. The inflection point (IP) and EC50 values were calculated using the following equation by GraphPad Prism 5 software (GraphPad Software Inc): Y=Bottom+(Top-Bottom)/1+10^(Log IPorEC50-X×HillSlope))
(§3) where X and Y are the log concentration of a compound and the percentage of Ca^2+ response, respectively, and Top and Bottom are the upper and lower plateaus, respectively.

[3] = Concentrations in plasma and brain of wild-type and M1R KO mice; assay type: in vivo; details: mouse, po; for concentration at 2 h: mean ± SD; for Kp at 2 h: brain/plasma
Description: as §1

[4] = tested on: rats pretreated with scopolamine; assay: Novel object recognition (NOR) test, scopolamine‐induced memory impairment; assay type: in vivo, rat; details: for scopolamine‐induced NDI reduction, retention trial: scopolamine 0.1 mg/kg s.c.
Description: On Day 1, 7‐week‐old Long‐Evans rats were individually placed into the test box fabricated from polyvinyl chloride (40‐cm square with 50‐cm high walls) without any objects for 10 minutes. […] In the acquisition trial, each rat was placed in the test box containing two identical objects and allowed to explore them for 3 minutes. After an intertrial interval of 4 hours, each rat was again placed in the same test box containing one familiar and one novel objects and allowed to explore both for 3 minutes (retention trial). The behavior of each animal during the acquisition and retention trials was recorded on video, and the time spent exploring each object (licking, sniffing, or touching the object with the forepaws) was scored manually. Results were presented as novelty discrimination index (NDI) calculated as follows: the exploration time for the novel object/the exploration time for both objects × 100.

[5] = tested on: IP1 production in the mouse hippocampus; assay: In vivo IP1 assay, mouse hippocampus; details: p.o.; 3, 10, 30 mg/kg tested
Description: as §1, with “Brain tissues were homogenized in 19 (for rat tissues) or 39 (for mouse tissue) volumes of homogenization buffer (10 mmol/L HEPES pH 7.4, 50 mmol/L LiCl, 150 mmol/L NaCl, and 1% Triton X‐100), and the homogenate was incubated on a rotator for 1 hour, followed by centrifugation. The supernatant was diluted with 39 (for rat tissues) or 19 (for mouse tissues) volumes of dilution buffer (10 mmol/L HEPES pH 7.4, 50 mmol/L LiCl, and 150 mmol/L NaCl).” left out

human M1R [6] = molecular target: T1, human M1R; assay: Ca2+ mobilization assay, agonist activity (absence of ACh), CHO‐K1 cells; assay type: cell-based; design: expressed in transfected cells; host or cells: CHO-K1; details: for margin between PAM and agonist activities: CHO‐K1 cells expressing human M1R
Description: as §2, §3

[7] = tested on: IP1 production in the hippocampus, prefrontal cortex, striatum, and brainstem; assay: In vivo IP1 assay, wild‐type and M1R KO mice; design: species or system mouse
Description: as §1

human M2R–M5R = assay: Ca2+ mobilization assay, PAM activity (with EC20 ACh), CHO‐K1 cells; assay type: cell-based; details: inflection point, EC20 concentration of ACh, read-out: PAM activity IP
Description: as §2, §3

[8] = brain (hippocampus), 10 mg/kg, mouse hippocampus, pretreated with the compound 10 mg/kg p.o. for 13 days, 10 mg/kg p.o., read-out: Brain concentration
[9] = brain (hippocampus), 10 mg/kg, mouse hippocampus, vehicle-pretreated, 10 mg/kg p.o., read-out: Brain concentration
[10] = brain (hippocampus), 30 mg/kg, mouse hippocampus, pretreated with the compound 10 mg/kg p.o. for 13 days, 30 mg/kg p.o., read-out: Brain concentration
[11] = brain (hippocampus), 30 mg/kg, mouse hippocampus, vehicle-pretreated, 30 mg/kg p.o., read-out: Brain concentration
[12] = plasma, 10 mg/kg, pretreated with the compound 10 mg/kg p.o. for 13 days, 10 mg/kg p.o., read-out: Plasma concentration
[13] = plasma, 10 mg/kg, vehicle-pretreated, 10 mg/kg p.o., n = 10, read-out: Plasma concentration
[14] = plasma, 30 mg/kg, pretreated with the compound 10 mg/kg p.o. for 13 days, 30 mg/kg p.o., read-out: Plasma concentration
[15] = plasma, 30 mg/kg, vehicle-pretreated, 30 mg/kg p.o., n = 10, read-out: Plasma concentration

Structure (SMILES) | concentration at 2 h [1, 8] [ng/g] | concentration at 2 h [1, 9] [ng/g] | concentration at 2 h [1, 10] [ng/g] | concentration at 2 h [1, 11] [ng/g] | concentration at 2 h [1, 12] [ng/mL] | concentration at 2 h [1, 13] [ng/mL] | concentration at 2 h [1, 14] [ng/mL] | concentration at 2 h [1, 15] [ng/mL] | EC50 (human M1R [2]) [nM] | scopolamine‐induced NDI reduction, retention trial ([4]; 1 mg/kg p.o.) | scopolamine‐induced NDI reduction, retention trial ([4]; 3 mg/kg p.o.) | minimum effective dose for increase of IP1 production in the mouse hippocampus [5] [mg/kg] | EC50 (human M1R [6]) [nM] | margin between PAM and agonist activities (human M1R [6]) [fold] | EC50 (human M2R–M5R) [nM] | also measured
Cc1c(Cc2ccc(Cl)nc2)cc2c(c1Cl)OCN([C@H]1CCC[C@@H]1O)C2=O [T‐495, 8‐chloro‐6‐((6‐chloropyridin‐3‐yl)methyl)‐3‐((1S,2S)‐2‐hydroxycyclopentyl)‐7‐methyl‐2,3‐dihydro‐4H‐1,3‐benzoxazin‐4‐one] | 879 ± 159 | 956 ± 122 | 4090 ± 599 | 3650 ± 744 | 1300 ± 338 | 1150 ± 215 | 5420 | 4890 ± 923 | 2.29 | significantly reversed | significantly reversed | 10 | 649 | 282 | > 1000 | concentration at 2 h ([3]; brain (hippocampus), 10 mg/kg, M1R KO mice hippocampus, 10 mg/kg p.o., read-out: Brain concentration): 856 ± 78.4 ng/g; concentration at 2 h ([3]; brain (hippocampus), 10 mg/kg, wild-type mice hippocampus, 10 mg/kg p.o., read-out: Brain concentration): 1030 ± 145 ng/g; Kp at 2 h ([3]; 10 mg/kg, M1R KO mice, 10 mg/kg p.o.): 0.55; Kp at 2 h ([3]; 10 mg/kg, wild-type mice, 10 mg/kg p.o.): 0.62 ± 0.1; concentration at 2 h ([3]; plasma, 10 mg/kg, M1R KO mice, 10 mg/kg p.o., n = 10, read-out: Plasma concentration): 1590 ± 266 ng/mL; concentration at 2 h ([3]; plasma, 10 mg/kg, wild-type mice, 10 mg/kg p.o., n = 10, read-out: Plasma concentration): 1690 ± 280 ng/mL; scopolamine‐induced NDI reduction, retention trial ([4]; 0.3 mg/kg p.o.): subeffective; scopolamine‐induced NDI reduction, combination with donepezil ([4]; T‐495 0.3 mg/kg + donepezil 0.1 mg/kg p.o.): significantly improved; IP1 production in hippocampus, prefrontal cortex, and striatum ([7]; M1R KO mice, 10 mg/kg p.o.): did not cause a significant increase; IP1 production in hippocampus, prefrontal cortex, and striatum ([7]; wild‐type mice, 10 mg/kg p.o.): significantly increased
Cc1ccc(Cc2cc3c(=O)n([C@H]4CCCC[C@@H]4O)cnc3c3ccccc23)cn1 [MK‐7622, 3‐((1S,2S)‐2‐hydroxycyclohexyl)‐6‐((6‐methylpyridin‐3‐yl)methyl)benzo[h]quinazolin‐4(3H)‐one, reference compound] | 126 ± 28.7 | 137 ± 23.1 | 813 ± 262 | 787 ± 284 | 490 ± 86.4 | 624 ± 61.4 | 2430 ± 550 | 2340 ± 518 | 1.32 | subeffective | significantly reversed | 10 | 407 | 313 | > 1000 | concentration at 2 h ([3]; brain (hippocampus), 20 mg/kg, M1R KO mice hippocampus, 20 mg/kg p.o., read-out: Brain concentration): 456 ± 85.8 ng/g; concentration at 2 h ([3]; brain (hippocampus), 20 mg/kg, wild-type mice hippocampus, 20 mg/kg p.o., read-out: Brain concentration): 582 ± 133 ng/g; Kp at 2 h ([3]; 20 mg/kg, M1R KO mice, 20 mg/kg p.o.): 0.21; Kp at 2 h ([3]; 20 mg/kg, wild-type mice, 20 mg/kg p.o.): 0.26; concentration at 2 h ([3]; plasma, 20 mg/kg, M1R KO mice, 20 mg/kg p.o., n = 10, read-out: Plasma concentration): 2190 ± 312 ng/mL; concentration at 2 h ([3]; plasma, 20 mg/kg, wild-type mice, 20 mg/kg p.o., n = 10, read-out: Plasma concentration): 2240 ± 376 ng/mL; scopolamine‐induced NDI reduction, retention trial ([4]; 10 mg/kg p.o.): significantly reversed; scopolamine‐induced NDI reduction, combination with donepezil ([4]; MK‐7622 1 mg/kg + donepezil 0.1 mg/kg p.o.): could not reverse; IP1 production in the brainstem ([7]; M1R KO mice (and wild‐type), 20 mg/kg p.o.): slight reduction; IP1 production in hippocampus, prefrontal cortex, and striatum ([7]; M1R KO mice, 20 mg/kg p.o.): did not cause a significant increase; IP1 production in the brainstem ([7]; wild‐type mice, 20 mg/kg p.o.): slightly reduced; IP1 production in the forebrain ([7]; wild‐type mice, 20 mg/kg p.o.): increased
